Assays:
R7 in U937 monocytes = assay: p24 ELISA of supernatant after R7 co-transfection; type: cell-based, HIV; conditions: up to 36 days
Protocol: Jurkat cells, HEK293 cells, THP-1 monocytes and U937 monocytes were co-transfected with either R7 […] Nef SMR wt (antagonist) or with R7+Nef SMR mt (nonfunctional antagonist) by Chariot™ Kit. The transfection efficiency was 30-40%.
R7 is a clone containing the viral genome. Transfection into cells allows expression of the viral genome and ultimately virion formation and release. The amount of virion production in the extracellular supernatant is measured through p24 protein (viral protein).
At 2 hours, 3 days, 6 days, 9 days, 13 days, 15 days, 17 days, 20 days, 23 days, 27 days and 36 days post-transfection, 0.5 ml supernatant were collected from each plate, mixed with 0.5 ml fresh media and analyzed by p24 ELISA assay. 1.5 ml of supernatant were collected from each plate and spun in a TLA100 rotor at 400,000×g for 1 hour to create the pellets. The pellets were used for Western blot analysis with p24 mAb and Nef mAb.

R7 in Jurkat cells = assay: Electron microscopy of viral particle distribution; type: cell-based, HIV; conditions: R7 co-transfection, day 6 versus day 14
Text: FIG. 4A is a composite of diagrams showing ELISA analysis of p24 concentration in Jurkat cells (panel A), HEK293 cells (panel B), THP-1 Monocytes (panel C) and U937 monocytes (panel D). FIG. 4B is a composite of confocal microscope pictures showing blocking of p24 release in Jurkat cells by SMRwt peptide (panel A) but not by SMRrmt peptide (panel B). FIG. 4C is a composite of confocal and electron microscope pictures showing viral particle distribution in Jurkat cells at day 6 post-transfection with R7 and SMRwt peptide (panel A-1) or with R7 and SMRmt peptide (panel B-1). FIG. 4D is a composite of confocal and electron microscope pictures showing viral particle distribution in Jurkat cells at day 14 post-transfection with R7 and SMRwt peptide (panel A-2) or with R7 and SMRmt peptide (panel B-2), FIG. 4E is a composite of confocal and electron microscope pictures showing viral particle distribution in subcellular structures in Jurkat cells at day 6 post-transfection with R7 and SMRwt peptide (panel A-1) or with R7 and SMRmt peptide (panel B-1) in Jurkat cells and at day 14 post-transfection with R7 and SMRwt peptide (panel A-2) or with R7 and SMRmt peptide (panel B-2) in Jurkat cells.
FIGS. 4C-4E are electron microscopic pictures showing Jurkat cells transfected with R7/SMRwt or […] at day 6 (FIG. 4C) and day 14 (FIG. 4D) post transfection. […]

Jurkat cells = assay: Cellular toxicity assay, fluorescein diacetate and propidium iodide; type: cell-based; conditions: peptide alone by Chariot, 48 hours
Text: FIG. 12 is a composite of pictures showing the result of cellular toxicity assay for cells transfected with SMRwt or SMRmt peptide. Panels A-1 and B-1: Propidium iodide staining of cells transfected with SMRwt and SMRmt peptide, respectively. Panels A-2 and B-2: Fluorescein diacetate staining of cells transfected with SMRwt and SMRmt peptide, respectively. Panels A-3 and B-3: Phase microscope image of cells transfected with SMRwt and SMRmt peptide, respectively.
SMRwt or SMRmut (negative control) peptide alone were transfected into Jurkat cells using Chariot. The transfected cells were allowed to grow for 48 hours. The cells were assayed by Fluorescein diacetate (FD; taken up by live cells and converted to FITC making cells fluoresce green) and propidium iodide (PI; diffuse across porous membranes of dying cells fluoresing red inside those cells) for cytotoxicity.

For H-VGFPVAAVGFPVDYKDDDDK-OH [SMRwt], the p24 in supernatant (R7 in U937 monocytes) was “little p24”, the “release of virus as measured by EM” value (R7 in Jurkat cells) was “delays release of virus from infected cells” and the “dying cells (propidium iodide)” value (Jurkat cells) was < 2%. For the same substance, the “cytotoxicity (in words)” value (Jurkat cells; FD/PI) was “very little or no cytotoxicity”.
